Laboratory results taken from publication PMC7596714, “Acute EPA-induced learning and memory impairment in mice is prevented by DHA” (Nature Communications, 2020).

Target: T1, 5-HT6R (5-hydroxytryptamine6 receptor, serotonin 6 receptor) (Homo sapiens, UniProt P50406)
T1 construct: gene HTR6
Assay: radioligand competition with [3H]-LSD; supported by cAMP accumulation in […] cells with human 5-HT6R plasmid
Assay type: binding

T1 sequence (P50406 whole entry): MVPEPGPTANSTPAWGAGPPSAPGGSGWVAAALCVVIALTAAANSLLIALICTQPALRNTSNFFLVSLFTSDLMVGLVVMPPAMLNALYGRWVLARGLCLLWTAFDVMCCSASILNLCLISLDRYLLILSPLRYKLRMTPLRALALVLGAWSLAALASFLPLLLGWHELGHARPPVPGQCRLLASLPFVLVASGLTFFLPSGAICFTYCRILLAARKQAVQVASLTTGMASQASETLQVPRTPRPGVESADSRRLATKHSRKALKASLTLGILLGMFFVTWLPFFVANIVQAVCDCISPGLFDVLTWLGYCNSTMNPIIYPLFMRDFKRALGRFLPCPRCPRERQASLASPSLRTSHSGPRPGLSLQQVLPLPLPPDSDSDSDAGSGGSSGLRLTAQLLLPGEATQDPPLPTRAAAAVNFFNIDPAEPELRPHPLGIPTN

- IC50: 26.6 µM
SMILES: CC/C=C\C/C=C\C/C=C\C/C=C\C/C=C\CCCC(=O)O [EPA, Eicosapentaenoic acid]
